Source: PubChem BioAssay AID1918932 (Molecular Pharmacology Branch, DTP, NCI, 2023)
pIC50: −log10 of the molar value.

Test system: 171881-019-R-J1-PDC complex spheroid viability
Test: Anticancer human tumor 171881-019-R-J1-PDC patient-derived invasive breast carcinoma cell line growth inhibition
Conditions: for pIC50: curve of first compound; for viability, T/C: stronger effect = lower value
From the text: Multicellular complex tumor spheroid response to LSD1 Inhibitor Iadademstat in combination with a variety of drugs and investigational agents in selected tumor cell lines
The current study was undertaken to assess response to LSD1 inhibitors in combination with standard-of-care drugs and investigational agents in solid tumor complex spheroid models as well as in the K-562 leukemia. Complex spheroids include a stromal component modeled by human endothelial cells (HUVEC) and fibroblasts modeled by human mesenchymal stem cells (MSCs). The concentration ranges selected for each drug and investigational agent were based upon clinically achievable concentrations if the clinical Cmax of the agent was known.
Compounds. The drugs and investigational agents used in this study are listed on Table 1. All of the agents used, including staurosporine (NSC755774) and gemcitabine (NSC613327), were obtained from the Developmental Therapeutics Program, NCI. FDA-approved anticancer drugs are available from the NCI at http://dtp.nci.nih.gov/branches/dscb/oncology_drugset_explanation.html. Drugs and investigational agents were >95% pure by proton nuclear magnetic resonance (NMR) and liquid chromatography/mass spectrometry (LC/MS). Stock solutions were prepared at 400x in DMSO, stored at -70 degrees C, and diluted in fresh medium prior to their use. The final concentration of DMSO in cell culture wells never exceeded 0.25% (v/v). The FDA-approved anticancer drug set is available from the Developmental Therapeutics Program at https://dtp.cancer.gov/organization/dscb/obtaining/available_plates.htm. All drugs and investigational agents were tested over a range starting from a high concentration at or near the clinical Cmax and decreasing in half-log increments. If the clinical Cmax for an agent had not been determined, the highest concentration tested was 10 microM.
Cell Lines. The patient-derived cancer cell (PDC) lines: 292921-168-R-J2-PDC, K24384-001-R-PDC, and 521955-158-R2-J5-PDC pancreatic carcinomas, 556581-035-R-J1 ovarian carcinoma, 324938-238-R-J1-PDC, 855422-203-R-J1-PDC and 883617-216-R-J1-PDC urothelial bladder carcinomas, 743489-274-T-PDC renal cell carcinoma, 138582-R-J1 Merkel cell tumor, K60290-347-R-J1 and K57222-313-R-J1-PDC glioblastomas, 653999-131-R-J2-PDC, LG0703-F948-PDC, and 349418-098-R-PDC non-small cell lung carcinomas, 885512-296-R-J2-PDC, 171881-019-R-J1-PDC breast carcinomas and 186277-243-T-J2-PDC and 233499-124-R-J2-PDC colon carcinomas were obtained from the NCI Patient-Derived Models Repository (PDMR, https://pdmr.cancer.gov). The established cell lines NCI/ADR-RES (RRID:CVCL_14520 and OVCAR-5 (RRID:CVCL_1628) ovarian carcinomas, 786-O (RRID:CVCL_1051) and A498 (RRID:CVCL_A498) renal cell carcinoma, NCI-H211 (ATCC, cat. CRL-5824; RRID:CVCL_1529), NCI-H196 (ATCC, cat. CRL-5823, RRID:CVCL_1509), SW 1271 (ATCC, cat. CRL-2177, RRID:CVCL_1716) and NCI-H1876 (ATCC, cat. CRL-5902, RRID:CVCL_1503) small cell lung carcinomas, MDA-MB-231 (RRID:CVCL_0062) and MDA-MB-468 (RRID:CVCL_0419)breast carcinomas (10-12). Pooled donor human umbilical vein endothelial cells (HUVEC, Lonza, cat. CC-2519) and human mesenchymal stem cells (hMSC, Lonza, cat. PT-2501) were purchased from Lonza (Walkersville, MD).
Cell Culture. All cells were maintained in an incubator at 37 degrees C and 5% CO2 with 95% humidity. The PDC lines were cultured according to standard operating procedures established by the NCI PDMR (https://pdmr.cancer.gov). Briefly all PDCs were thawed and cultured in Matrigel-coated flasks prepared with a working solution of 1X Ham's F-12 nutrient mix, without supplementation (Invitrogen, Waltham, MA, cat. 11765054), 100 U/mL penicillin-streptomycin (Invitrogen, cat. 15140122), and 2.5% Matrigel (Corning Inc., Corning, NY, cat. 354248) for the first three passages. […]
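Also: spheroids exposed to agents for 7 days after 3 days growth.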

SMILES: O=C(C=Cc1cccc(S(=O)(=O)Nc2ccccc2)c1)NO + NC1CCC(NC2CC2c2ccccc2)CC1
- pIC50 (second compound 0.1 µM): 6.36
- pIC50 (second compound 0.316 µM): 6.41
- pIC50 (second compound 1 µM): 6.43
- pIC50 (second compound 3.16 µM): 6.43
- pIC50 (second compound 10 µM): 6.44
- viability, T/C (second compound 0.1 µM, first compound 0.00949 µM): 81.7%
- viability, T/C (second compound 0.1 µM, first compound 0.03 µM): 86.9%
- viability, T/C (second compound 0.1 µM, first compound 0.0949 µM): 112%
- viability, T/C (second compound 0.1 µM, first compound 0.3 µM): 69.3%
- viability, T/C (second compound 0.1 µM, first compound 0.949 µM): 10.8%
- viability, T/C (second compound 0.1 µM, first compound 3 µM): 0.16%
- viability, T/C (second compound 0.316 µM, first compound 0.00949 µM): 92.8%
- viability, T/C (second compound 0.316 µM, first compound 0.03 µM): 104%
- viability, T/C (second compound 0.316 µM, first compound 0.0949 µM): 112%
- viability, T/C (second compound 0.316 µM, first compound 0.3 µM): 63.5%
- viability, T/C (second compound 0.316 µM, first compound 0.949 µM): 5.13%
- viability, T/C (second compound 0.316 µM, first compound 3 µM): 0.17%
- viability, T/C (second compound 1 µM, first compound 0.00949 µM): 101%
- viability, T/C (second compound 1 µM, first compound 0.03 µM): 108%
- viability, T/C (second compound 1 µM, first compound 0.0949 µM): 100%
- viability, T/C (second compound 1 µM, first compound 0.3 µM): 59%
- viability, T/C (second compound 1 µM, first compound 0.949 µM): 10.2%
- viability, T/C (second compound 1 µM, first compound 3 µM): 5.62%
- viability, T/C (second compound 3.16 µM, first compound 0.00949 µM): 93.4%
- viability, T/C (second compound 3.16 µM, first compound 0.03 µM): 105%
- viability, T/C (second compound 3.16 µM, first compound 0.0949 µM): 97%
- viability, T/C (second compound 3.16 µM, first compound 0.3 µM): 58.9%
- viability, T/C (second compound 3.16 µM, first compound 0.949 µM): 9.02%
- viability, T/C (second compound 3.16 µM, first compound 3 µM): 0.15%
- viability, T/C (second compound 10 µM, first compound 0.00949 µM): 84.1%
- viability, T/C (second compound 10 µM, first compound 0.03 µM): 93%
- viability, T/C (second compound 10 µM, first compound 0.0949 µM): 111%
- viability, T/C (second compound 10 µM, first compound 0.3 µM): 59.1%
- viability, T/C (second compound 10 µM, first compound 0.949 µM): 7.76%
- viability, T/C (second compound 10 µM, first compound 3 µM): 0.33%
